Measurements reported in PubChem BioAssay AID318 (DTP/NCI, 2004).
Several values for one entry are separate records, joined by “and”; a condition that tells them apart may be missing. Equal values may be shown once. Inconclusive results and toxic doses are left out.

System: BDF1 mice, P815 leukemia ip, survival T/C
Assay: NCI In Vivo Anticancer Drug Screen. Data for tumor model P815 Mast Cell Leukemia (Ascitic) (intraperitoneal) in B6D2F1 (BDF1) mice
Details: endpoint: survival time, mean or median, higher = longer survival
Method: The antitumor activity of compounds was measured in mice bearing transplantable tumors. Survival or tumor size were measured and the results are expressed as the measurement made in the treated group (T) divided by the measurement made in the vehicle treated control group (C). The tumor model used in this assay is P815 Mast Cell Leukemia (Ascitic) (intraperitoneal) in B6D2F1 (BDF1) mice

[1] = dose: 2.0 mg/kg/injection, schedule: Q01DX010 (ip), vehicle: saline
[2] = dose: 5.0 mg/kg/injection, schedule: Q01DX010 (ip), vehicle: saline
[3] = dose: 10.0 mg/kg/injection, schedule: Q01DX010 (ip), vehicle: saline
[4] = dose: 62.5 mg/kg/injection, schedule: Q01DX010 (ip), vehicle: saline
[5] = dose: 25.0 mg/kg/injection, schedule: Q01DX010 (ip), vehicle: saline
[6] = dose: 50.0 mg/kg/injection, schedule: Q01DX010 (ip), vehicle: saline

N#C[C@@H]1C2C=CC(CC2)[C@H]1C#N
T/C (dose: 0.25 mg/kg/injection, schedule: Q01DX010 (ip), vehicle: saline): 100 % of control | T/C (dose: 0.5 mg/kg/injection, schedule: Q01DX010 (ip), vehicle: saline): 100 % of control and 105 % of control | T/C (dose: 1.0 mg/kg/injection, schedule: Q01DX010 (ip), vehicle: saline): 100 % of control | T/C [1]: 88 % of control and 100 % of control

Oc1cc(CN(CCCl)CCCl)c(O)cc1CN(CCCl)CCCl
T/C (dose: 0.63 mg/kg/injection, schedule: Q01DX010 (ip), vehicle: saline): 111 % of control | T/C (dose: 1.25 mg/kg/injection, schedule: Q01DX010 (ip), vehicle: saline): 116 % of control and 122 % of control | T/C (dose: 2.5 mg/kg/injection, schedule: Q01DX010 (ip), vehicle: saline): 172 % of control | T/C [2]: 122 % of control | T/C [3]: 122 % of control

O=CCC(O)C(O)C(O)CO (stereo unspecified)
T/C [4]: 94 % of control and 97 % of control | T/C (dose: 125.0 mg/kg/injection, schedule: Q01DX010 (ip), vehicle: saline): 97 % of control and 105 % of control | T/C (dose: 250.0 mg/kg/injection, schedule: Q01DX010 (ip), vehicle: saline): 105 % of control and 107 % of control | T/C (dose: 500.0 mg/kg/injection, schedule: Q01DX010 (ip), vehicle: saline): 102 % of control

C[C@@H]1C[C@@H]([C@H](O)CC2CC(=O)NC(=O)C2)C(=O)[C@@H](C)C1
T/C [2]: 109 % of control and 118 % of control | T/C [3]: 104 % of control and 109 % of control | T/C (dose: 20.0 mg/kg/injection, schedule: Q01DX010 (ip), vehicle: saline): 109 % of control and 118 % of control | T/C (dose: 40.0 mg/kg/injection, schedule: Q01DX010 (ip), vehicle: saline): 118 % of control

CCn1cnc2c(=S)nc[nH]c21
T/C (dose: 15.6 mg/kg/injection, schedule: Q01DX010 (ip), vehicle: saline): 94 % of control | T/C (dose: 31.3 mg/kg/injection, schedule: Q01DX010 (ip), vehicle: saline): 98 % of control and 102 % of control | T/C [4]: 97 % of control

CS(=O)(=O)OCCCCOS(C)(=O)=O
T/C (dose: 6.25 mg/kg/injection, schedule: Q01DX010 (ip), vehicle: saline): 104 % of control and 118 % of control | T/C (dose: 12.5 mg/kg/injection, schedule: Q01DX010 (ip), vehicle: saline): 86 % of control | T/C [5]: 86 % of control and 95 % of control | T/C [6]: 86 % of control and 95 % of control

Nc1nc(=S)c2ncn(C3OC(CO)C(O)C3O)c2[nH]1 (stereo unspecified)
T/C [1]: 155 % of control

COc1ccc(CSc2ncnc3nc[nH]c23)cc1
T/C (dose: 62.5 mg/kg/injection, schedule: Q01DX015 (ip), vehicle: carboxymethylcellulose (CMC)): 91 % of control

CN(C)c1ccc(/C=C\c2ccnc3ccccc23)cc1
T/C (dose: 1.5 mg/kg/injection, schedule: Q01DX010 (ip), vehicle: saline): 90 % of control | T/C (dose: 3.0 mg/kg/injection, schedule: Q01DX010 (ip), vehicle: saline): 90 % of control | T/C (dose: 6.0 mg/kg/injection, schedule: Q01DX010 (ip), vehicle: saline): 90 % of control | T/C (dose: 12.0 mg/kg/injection, schedule: Q01DX010 (ip), vehicle: saline): 90 % of control

CC/C(=C(/CC)c1ccc(O)cc1)c1ccc(O)cc1
T/C (dose: 12.5 mg/kg/injection, schedule: Q01DX010 (sc), vehicle: steriod suspending solution): 100 % of control and 104 % of control | T/C (dose: 25.0 mg/kg/injection, schedule: Q01DX010 (sc), vehicle: steriod suspending solution): 100 % of control and 109 % of control | T/C (dose: 50.0 mg/kg/injection, schedule: Q01DX010 (sc), vehicle: steriod suspending solution): 100 % of control and 104 % of control | T/C (dose: 100.0 mg/kg/injection, schedule: Q01DX010 (sc), vehicle: steriod suspending solution): 100 % of control and 109 % of control

NC12CC3CC(CC(C3)C1)C2
T/C [5]: 100 % of control | T/C [6]: 100 % of control | T/C (dose: 100.0 mg/kg/injection, schedule: Q01DX010 (ip), vehicle: saline): 105 % of control

CCCCn1cnc2c(=S)nc[nH]c21
T/C (dose: 16.0 mg/kg/injection, schedule: Q01DX010 (ip), vehicle: saline): 105 % of control | T/C (dose: 32.0 mg/kg/injection, schedule: Q01DX010 (ip), vehicle: saline): 100 % of control | T/C (dose: 64.0 mg/kg/injection, schedule: Q01DX010 (ip), vehicle: saline): 111 % of control | T/C (dose: 128.0 mg/kg/injection, schedule: Q01DX010 (ip), vehicle: saline): 105 % of control
